Data published in article PMC4414346, “Crystal Structure of Allophycocyanin from Marine Cyanobacterium Phormidium sp. A09DM” (PLoS ONE, 2015).

Molecular target: T1, Phormidium APC (allophycocyanin) (Phormidium rubidum, UniProt A0A078K1U6+A0A078K4M9)
T1 construct: gene apcA; native purification from the cyanobacterium; no tags; alpha 18064 Da and beta 18011 Da with chromophore; trimer of alpha-beta monomers (118 kDa); N-methylasparagine in beta; GenBank entries partial (alpha 9-161, beta 1-155), corrected in structure: alpha N10K, R49C, D145N, beta E35K
Assay: X-ray crystallography, […] A
Type: binding
Conditions: covalent; one chromophore on Cys-81 of alpha and one on Cys-81 of beta; alpha-chromophore site also lined by beta residues in the trimer; crystals pH 8.5, PEG 6000

C/C=C1/C(=C/c2[nH]c(/C=C3N=C(/C=C4\NC(=O)C(CC)=C4C)C(C)=C\3CCC(=O)O)c(CCC(=O)O)c2C)NC(=O)[C@@H]1C [phycocyanobilin]
X-ray crystallography, 2.51 A: One PCB chromophore is covalently bonded to the conserved Cys-81 of α-subunit (α-chromophore)
